Patent publication US20110173718A1, “HERBICIDE TOLERANT PLANTS” (SYNGENTA CROP PROTECTION, INC., priority 2008, published 2011)

What was measured:
Arabidopsis HST = biological target: T1, Arabidopsis HST (Arabidopsis thaliana, UniProt Q1ACB3); test: HST total extraction (non TLC) assay, recombinant Arabidopsis HST from insect cells; type: biochemical
T1 construct: GST (factor Xa cleavage site) (N); made in house; host or cells: Sf9 insect cells (baculovirus, pAcG3X), membrane fraction
T1 sequence (Q1ACB3 70-386): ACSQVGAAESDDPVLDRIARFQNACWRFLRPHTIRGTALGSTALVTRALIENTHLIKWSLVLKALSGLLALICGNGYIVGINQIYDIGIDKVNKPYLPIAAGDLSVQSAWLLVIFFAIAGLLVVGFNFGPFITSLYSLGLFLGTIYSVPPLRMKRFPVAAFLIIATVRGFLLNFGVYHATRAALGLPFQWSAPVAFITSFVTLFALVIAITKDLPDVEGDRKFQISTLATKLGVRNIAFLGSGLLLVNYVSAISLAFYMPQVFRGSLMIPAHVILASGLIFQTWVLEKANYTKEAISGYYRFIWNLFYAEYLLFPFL

weeds [1] = test: Glasshouse weed control, HST inhibitors alone and with A22, post-emergence; type: in vivo; conditions: 14 DAT, single replicate; for pest or weed control at 15.625 g/ha / pest or weed control at 62.5 g/ha / pest or weed control at 250 g/ha: 336 h, read-out: % control score, Obs
Method in brief: (§1)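 Weeds grown in glasshouse trays (24-27 C day, 18-21 C night, ~15 h photoperiod) and track-sprayed in 0.2% X77 at […], pre-emergence or post-emergence at about 7-12 d. HPPD inhibitor A22 applied at 2 g/ha alone or mixed with HST herbicides. Damage scored 0–100% at 14 DAT; synergy calculated by Colby formula.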

weeds [2] = test: Glasshouse weed control, HST inhibitors alone and with A22, pre-emergence; type: in vivo; conditions: 14 DAT; for pest or weed control at 15.625 g/ha / pest or weed control at 62.5 g/ha / pest or weed control at 250 g/ha: 336 h
Method in brief: as §1

C#Cn1c(=O)c(-c2c(F)ccc(F)c2Cl)c(O)c2nccnc21 [Compound 2.18]
Estimated IC50 (ppm) (Arabidopsis HST): 6 ppm
% control score, Obs (weeds [1]; BRAPL, 15.625 g/ha alone): 5%
% control score, Obs (weeds [1]; BRAPL, 62.5 g/ha alone): 60%
% control score, Obs (weeds [1]; BRAPL, 250 g/ha alone): 80%
% control score, Obs (weeds [1]; DIGSA, 15.625 g/ha alone): 1%
% control score, Obs (weeds [1]; DIGSA, 62.5 g/ha alone): 30%
% control score, Obs (weeds [1]; DIGSA, 250 g/ha alone): 50%
% control score, Obs (weeds [1]; ECHCG, 15.625 g/ha alone): 2%
% control score, Obs (weeds [1]; ECHCG, 62.5 g/ha alone): 40%
% control score, Obs (weeds [1]; ECHCG, 250 g/ha alone): 70%
% control score, Obs (weeds [1]; PANMI, 15.625 g/ha alone): 10%
% control score, Obs (weeds [1]; PANMI, 62.5 g/ha alone): 65%
% control score, Obs (weeds [1]; PANMI, 250 g/ha alone): 70%
% control score, Obs (weeds [1]; SETFA, 15.625 g/ha alone): 10%
% control score, Obs (weeds [1]; SETFA, 62.5 g/ha alone): 60%
% control score, Obs (weeds [1]; SETFA, 250 g/ha alone): 85%
% control score, Obs (weeds [1]; SIDSP, 15.625 g/ha alone): 15%
% control score, Obs (weeds [1]; SIDSP, 62.5 g/ha alone): 60%
% control score, Obs (weeds [1]; SIDSP, 250 g/ha alone): 70%
BRAPL Obs, % control score (weeds [2]; BRAPL, HST inhibitor rate 15.625 g/ha): 0%
BRAPL Obs, % control score (weeds [2]; BRAPL, HST inhibitor rate 62.5 g/ha): 10%
BRAPL Obs, % control score (weeds [2]; BRAPL, HST inhibitor rate 250 g/ha): 40%
DIGSA Obs, % control score (weeds [2]; DIGSA, HST inhibitor rate 15.625 g/ha): 0%
DIGSA Obs, % control score (weeds [2]; DIGSA, HST inhibitor rate 62.5 g/ha): 0%
DIGSA Obs, % control score (weeds [2]; DIGSA, HST inhibitor rate 250 g/ha): 0%
ECHCG Obs, % control score (weeds [2]; ECHCG, HST inhibitor rate 15.625 g/ha): 0%
ECHCG Obs, % control score (weeds [2]; ECHCG, HST inhibitor rate 62.5 g/ha): 20%
ECHCG Obs, % control score (weeds [2]; ECHCG, HST inhibitor rate 250 g/ha): 20%
PANMI Obs, % control score (weeds [2]; PANMI, HST inhibitor rate 15.625 g/ha): 0%
PANMI Obs, % control score (weeds [2]; PANMI, HST inhibitor rate 62.5 g/ha): 0%
PANMI Obs, % control score (weeds [2]; PANMI, HST inhibitor rate 250 g/ha): 50%
SETFA Obs, % control score (weeds [2]; SETFA, HST inhibitor rate 15.625 g/ha): 0%
SETFA Obs, % control score (weeds [2]; SETFA, HST inhibitor rate 62.5 g/ha): 20%
SETFA Obs, % control score (weeds [2]; SETFA, HST inhibitor rate 250 g/ha): 25%
SIDSP Obs, % control score (weeds [2]; SIDSP, HST inhibitor rate 15.625 g/ha): 0%
SIDSP Obs, % control score (weeds [2]; SIDSP, HST inhibitor rate 62.5 g/ha): 30%
SIDSP Obs, % control score (weeds [2]; SIDSP, HST inhibitor rate 250 g/ha): 30%

O=S1(=O)C(c2ccc(Br)cc2C(F)(F)F)=C(O)c2nccnc2N1CC(F)F [Compound 3.5]
Estimated IC50 (ppm) (Arabidopsis HST): 42 ppm
pest or weed control at 15.625 g/ha (weeds [1]; BRAPL, 15.625 g/ha alone): 2%
pest or weed control at 62.5 g/ha (weeds [1]; BRAPL, 62.5 g/ha alone): 30%
pest or weed control at 250 g/ha (weeds [1]; BRAPL, 250 g/ha alone): 65%
pest or weed control at 15.625 g/ha (weeds [1]; PANMI, 15.625 g/ha alone): 5%
pest or weed control at 62.5 g/ha (weeds [1]; PANMI, 62.5 g/ha alone): 15%
pest or weed control at 250 g/ha (weeds [1]; PANMI, 250 g/ha alone): 70%
pest or weed control at 15.625 g/ha (weeds [1]; SIDSP, 15.625 g/ha alone): 2%
pest or weed control at 62.5 g/ha (weeds [1]; SIDSP, 62.5 g/ha alone): 10%
pest or weed control at 250 g/ha (weeds [1]; SIDSP, 250 g/ha alone): 10%
pest or weed control at 15.625 g/ha (weeds [1]; Digitaria sanguinalis, DIGSA, 15.625 g/ha alone): 0%
pest or weed control at 62.5 g/ha (weeds [1]; Digitaria sanguinalis, DIGSA, 62.5 g/ha alone): 0%
pest or weed control at 250 g/ha (weeds [1]; Digitaria sanguinalis, DIGSA, 250 g/ha alone): 5%
pest or weed control at 15.625 g/ha (weeds [1]; Echinochloa crus-galli, ECHCG, 15.625 g/ha alone): 5%
pest or weed control at 62.5 g/ha (weeds [1]; Echinochloa crus-galli, ECHCG, 62.5 g/ha alone): 15%
pest or weed control at 250 g/ha (weeds [1]; Echinochloa crus-galli, ECHCG, 250 g/ha alone): 30%
pest or weed control at 15.625 g/ha (weeds [1]; Setaria faberi, SETFA, 15.625 g/ha alone): 2%
pest or weed control at 62.5 g/ha (weeds [1]; Setaria faberi, SETFA, 62.5 g/ha alone): 10%
pest or weed control at 250 g/ha (weeds [1]; Setaria faberi, SETFA, 250 g/ha alone): 40%
pest or weed control at 15.625 g/ha (weeds [2]; BRAPL, HST inhibitor rate 15.625 g/ha, read-out: BRAPL Obs, % control score): 0%
pest or weed control at 62.5 g/ha (weeds [2]; BRAPL, HST inhibitor rate 62.5 g/ha, read-out: BRAPL Obs, % control score): 0%
pest or weed control at 250 g/ha (weeds [2]; BRAPL, HST inhibitor rate 250 g/ha, read-out: BRAPL Obs, % control score): 0%
pest or weed control at 15.625 g/ha (weeds [2]; PANMI, HST inhibitor rate 15.625 g/ha, read-out: PANMI Obs, % control score): 0%
pest or weed control at 62.5 g/ha (weeds [2]; PANMI, HST inhibitor rate 62.5 g/ha, read-out: PANMI Obs, % control score): 0%
pest or weed control at 250 g/ha (weeds [2]; PANMI, HST inhibitor rate 250 g/ha, read-out: PANMI Obs, % control score): 0%
pest or weed control at 15.625 g/ha (weeds [2]; SIDSP, HST inhibitor rate 15.625 g/ha, read-out: SIDSP Obs, % control score): 0%
pest or weed control at 62.5 g/ha (weeds [2]; SIDSP, HST inhibitor rate 62.5 g/ha, read-out: SIDSP Obs, % control score): 0%
pest or weed control at 250 g/ha (weeds [2]; SIDSP, HST inhibitor rate 250 g/ha, read-out: SIDSP Obs, % control score): 2%
pest or weed control at 15.625 g/ha (weeds [2]; Digitaria sanguinalis, DIGSA, HST inhibitor rate 15.625 g/ha, read-out: DIGSA Obs, % control score): 0%
pest or weed control at 62.5 g/ha (weeds [2]; Digitaria sanguinalis, DIGSA, HST inhibitor rate 62.5 g/ha, read-out: DIGSA Obs, % control score): 0%
pest or weed control at 250 g/ha (weeds [2]; Digitaria sanguinalis, DIGSA, HST inhibitor rate 250 g/ha, read-out: DIGSA Obs, % control score): 0%
pest or weed control at 15.625 g/ha (weeds [2]; Echinochloa crus-galli, ECHCG, HST inhibitor rate 15.625 g/ha, read-out: ECHCG Obs, % control score): 0%
pest or weed control at 62.5 g/ha (weeds [2]; Echinochloa crus-galli, ECHCG, HST inhibitor rate 62.5 g/ha, read-out: ECHCG Obs, % control score): 0%
pest or weed control at 250 g/ha (weeds [2]; Echinochloa crus-galli, ECHCG, HST inhibitor rate 250 g/ha, read-out: ECHCG Obs, % control score): 0%
pest or weed control at 15.625 g/ha (weeds [2]; Setaria faberi, SETFA, HST inhibitor rate 15.625 g/ha, read-out: SETFA Obs, % control score): 0%
pest or weed control at 62.5 g/ha (weeds [2]; Setaria faberi, SETFA, HST inhibitor rate 62.5 g/ha, read-out: SETFA Obs, % control score): 0%
pest or weed control at 250 g/ha (weeds [2]; Setaria faberi, SETFA, HST inhibitor rate 250 g/ha, read-out: SETFA Obs, % control score): 0%
